Laboratory results reported in PubChem BioAssay AID504515 (Sanford-Burnham Center for Chemical Genomics, 2011).
pIC50: −log10 of the molar value. Active and inactive are the calls of the source.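 How the source made its calls: active means mean IC50 below 800 nM; inactive means the rest.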

What follows are molecules tested on Jurkat NF-kB luciferase, PMA/ionomycin-induced, luminescence 16 h (assay: inhibitors of PMA/ionomycin-driven NF-kB luciferase in Jurkat – cell-based, luminescence, set 2, B-cell antigen receptor NF-kB inhibitors, SAR follow-up (AID 504515)).

| IC50 | pIC50 | Structure (SMILES) |
| --- | --- | --- |
| > 0.8 µM (inactive) |  | CC(C)c1ccc(-c2noc(CCC(=O)NC3CC3)n2)cc1 |
|  | 7.52 | CCCOc1ccc(-c2nc(CSCC(=O)O)c(C)o2)cc1 |
| > 0.8 µM (inactive) |  | CCOc1ccc(-c2nc(CSCC(N)=O)c(C)o2)cc1 |
|  | 6.54 | Cc1oc(-c2ccc(OC(F)(F)F)cc2)nc1CSCC(=O)O |
|  | 7.52 | CCOc1ccc(-c2nc(CSCC(=O)O)c(C)o2)cc1 |
| > 0.8 µM (inactive) |  | CCCOc1ccc(-c2nc(CSCC(=O)NCc3ccco3)c(C)o2)cc1 |
| > 0.8 µM (inactive) |  | CCCCc1ccc(-c2noc(CCC(=O)NC)n2)cc1 |
| > 0.8 µM (inactive) |  | CCCOc1ccc(-c2nc(CSCC(=O)NC3CC3)c(C)o2)cc1 |
| > 0.8 µM (inactive) |  | CCCCc1ccc(-c2noc(CCC(=O)NCC)n2)cc1 |
|  | 7.15 | CCCCOc1ccc(-c2nc(CSCC(=O)O)c(C)o2)cc1 |
| > 0.8 µM (inactive) |  | C#CCNC(=O)CSCc1nc(-c2ccc(OCC)cc2)oc1C |
